Measurements: US10660333B2, “Substituted 2-heterocyclylimidazolylcarboxamides as pesticides” (BAYER CROPSCIENCE AKTIENGESELLSCHAFT, priority 2016, dated 2020)
Like-named read-outs stand apart in the source and are kept apart here. Values belong to the compound of their own block, whether it stands above or below them.

Tests used:
[1] = system: Myzus persicae; assay: Myzus persicae - oral test; type: in vivo; settings: Myzus persicae, 120 h; 4 ppm, oral, after 5 days; read-out: efficacy (aphids killed)
Protocol: (§1) To produce a suitable active ingredient formulation, 1 part by weight of active ingredient is dissolved with the specified parts by weight of solvent and made up to the desired concentration with water.
(§2) 50 μl of the active ingredient formulation are transferred into microtitre plates and made up to a final volume of 200 μl with 150 μl of IPL41 insect medium (33%+15% sugar). Subsequently, the plates are sealed with parafilm, which a mixed population of green peach aphids (Myzus persicae) within a second microtitre plate is able to puncture and imbibe the solution.
(§3) After 5 days, the efficacy in % is determined. 100% means that all the aphids have been killed; 0% means that no aphids have been killed.

[2] = system: Myzus persicae; assay: Myzus persicae - spray test; type: in vivo; settings: Myzus persicae, foliar, 120 h; 500 g/ha, Chinese cabbage leaf discs, after 5 days; read-out: efficacy (aphids killed)
Protocol: Myzus persicae—Spray Test
(§4) To produce a suitable active ingredient formulation, 1 part by weight of active ingredient is dissolved with the specified parts by weight of solvent and made up to the desired concentration with water containing an emulsifier concentration of 1000 ppm. To produce further test concentrations, the formulation is diluted with emulsifier-containing water.
(§5) Discs of Chinese cabbage leaves (Brassica pekinensis) infested by all stages of the green peach aphid (Myzus persicae) are sprayed with an active ingredient formulation of the desired concentration.
as §3

[3] = system: Aphis gossypii; assay: Aphis gossypii - spray test (APHIGO S), cotton plants; type: in vivo; settings: 144 h, 6 dat, read-out: % efficacy
Protocol: Aphis gossypii—Spray Test (APHIGO S)
as §4, with “water. If the addition of ammonium salts or/and penetrants is required, these are each added in a concentration of 1000 ppm to the formulation solution.” for “water.”
Cotton plants (Gossypium hirsutum) heavily infested by the cotton aphid (Aphis gossypii) are sprayed with an active ingredient formulation of the desired concentration.
After the desired time, the kill in % is determined. 100% means that all the aphids have been killed; 0% means that no aphids have been killed.

[4] = log P by HPLC on reversed-phase (C18) columns, OECD Guideline 117; type: physicochemical; settings: reversed-phase (C18) HPLC column
[5] = system: Myzus persicae; assay: Myzus persicae - spray test (MYZUPE S), bell pepper plants; type: in vivo; settings: Myzus persicae, 144 h, 6 dat, read-out: % efficacy
Protocol: Myzus persicae—Spray Test (MYZUPE S)
as §4, with “water. If the addition of ammonium salts or/and penetrants is required, these are each added in a concentration of 1000 ppm to the formulation solution.” for “water.”
Bell pepper plants (Capsicum annuum) severely infested with the green peach aphid (Myzus persicae) are treated by spraying with the active ingredient formulation in the desired concentration.
After the desired time, the kill in % is determined. 100% means that all the animals have been killed; 0% means that no animals have been killed.

[6] = system: Myzus persicae; assay: Myzus persicae - spray test (MYZUPE), comparison with prior art; type: in vivo; settings: Myzus persicae, 120 h, 5 dat, read-out: % efficacy; for Emax at 20 g/ha: 20 g/ha (g of ai/ha); for Emax at 100 g/ha: 100 g/ha (g of ai/ha); for Emax at 4 g/ha: 4 g/ha (g of ai/ha)
Protocol: Myzus persicae—Spray Test (MYZUPE)
as §4, §5
(§6) After the desired period of time, the efficacy in % is determined. 100% means that all the aphids have been killed; 0% means that no aphids have been killed.

[7] = system: Myzus persicae; assay: Myzus persicae - drench test (MYZUPE D), savoy cabbage; type: in vivo; settings: Myzus persicae, soil, 240 h, 10 dat, read-out: % efficacy
Protocol: Myzus persicae—Drench Test (MYZUPE D)
To produce a suitable active ingredient formulation, 1 part by weight of active ingredient is mixed with the specified amounts of solvent and emulsifier, and the concentrate is diluted with water to the desired concentration, it being necessary to include the volume of soil which is drenched in the calculation. It should be ensured that a concentration of 40 ppm of emulsifier in the soil is not exceeded. To produce further test concentrations, water is used for dilution.
Savoy cabbage (Brassica oleracea) in pots with soil and infested by all stages of the green peach aphid (Myzus persicae) is watered with an active ingredient formulation of the desired concentration.
as §6

[8] = system: Myzus persicae; assay: Myzus persicae - oral test (MYZUPE O), comparison with prior art; type: in vivo; settings: Myzus persicae, po, 120 h, 5 dat, read-out: % efficacy
Protocol: Myzus persicae—Oral Test (MYZUPE O)
as §1, §2, §6

[9] = HPLC RP C18, acidic range pH 2.7, 0.1% formic acid/acetonitrile, read-out: logP[a]
[10] = HPLC RP C18, neutral range pH 7.8, ammonium hydrogencarbonate/acetonitrile, read-out: logP[n]

- chromatographic logP [4, 9]: 1.08
- chromatographic logP [4, 10]: 1.34
Structure (SMILES): CC(C)C1=NOC(c2ncc(C(=O)N(C)c3cccnc3)n2C)C1 (stereo not drawn) [Example I-1-3]
- pest or weed control at 4 ppm [1]: 100%
- pest or weed control at 500 g/ha [2]: 100%
- Emax at 0.16 ppm [3]: 70%
- Emax at 0.8 ppm [3]: 100%
- Emax at 0.16 ppm [5]: 99%
- Emax at 0.8 ppm [5]: 100%
- Emax at 20 g/ha [6]: 70%
- Emax at 100 g/ha [6]: 90%
- Emax at 500 g/ha [6]: 100%
- Emax at 0.16 ppm [7]: 95%
- Emax at 0.8 ppm [7]: 100%
- Emax at 0.8 ppm [8]: 100%
- Emax at 4 ppm [8]: 100%

- chromatographic logP [4, 9]: 0.27
- chromatographic logP [4, 10]: 0.76
Structure (SMILES): CC1=NOC(c2ncc(C(=O)N(C)c3cccnc3)n2C)C1 (stereo not drawn) [Example I-1-1]
- pest or weed control at 4 ppm [1]: 100%
- pest or weed control at 500 g/ha [2]: 100%
- Emax at 0.16 ppm [3]: 100%
- Emax at 0.8 ppm [3]: 100%
- Emax at 0.16 ppm [5]: 100%
- Emax at 0.8 ppm [5]: 95%
- Emax at 4 g/ha [6]: 70%
- Emax at 20 g/ha [6]: 70%
- Emax at 100 g/ha [6]: 70%
- Emax at 500 g/ha [6]: 100%
- Emax at 0.16 ppm [7]: 100%
- Emax at 0.8 ppm [7]: 100%
- Emax at 0.8 ppm [8]: 100%
- Emax at 4 ppm [8]: 100%

- chromatographic logP [4, 9]: 1.01
- chromatographic logP [4, 10]: 1.27
Structure (SMILES): CN(C(=O)c1cnc(C2CC(c3ccccn3)=NO2)n1C)c1cccnc1 (stereo not drawn) [Example I-1-26]
- pest or weed control at 4 ppm [1]: 100%
- pest or weed control at 500 g/ha [2]: 90%
- Emax at 0.8 ppm [3]: 100%
- Emax at 0.16 ppm [5]: 100%
- Emax at 0.8 ppm [5]: 100%
- Emax at 20 g/ha [6]: 90%
- Emax at 100 g/ha [6]: 90%
- Emax at 500 g/ha [6]: 90%
- Emax at 0.16 ppm [7]: 95%
- Emax at 0.8 ppm [7]: 98%
- Emax at 0.8 ppm [8]: 100%
- Emax at 4 ppm [8]: 100%

Structure (SMILES): Cc1ncc(C(=O)Nc2cccnc2)n1C [reference compound]
- Emax at 0.16 ppm [3]: 0%
- Emax at 0.8 ppm [3]: 0%
- Emax at 0.16 ppm [5]: 0%
- Emax at 0.8 ppm [5]: 30%
- Emax at 4 g/ha [6]: 0%
- Emax at 20 g/ha [6]: 0%
- Emax at 0.16 ppm [7]: 0%
- Emax at 0.8 ppm [7]: 0%

- chromatographic logP [4, 9]: 1.45
- chromatographic logP [4, 10]: 1.59
Structure (SMILES): CN(C(=O)c1cnc(C2CC(C(F)(F)F)=NO2)n1C)c1cccnc1 (stereo not drawn) [Example I-1-32]
- pest or weed control at 4 ppm [1]: 100%
- pest or weed control at 500 g/ha [2]: 90%
- Emax at 0.16 ppm [3]: 90%
- Emax at 0.8 ppm [3]: 97%
- Emax at 0.16 ppm [5]: 20%
- Emax at 0.8 ppm [5]: 96%
- Emax at 500 g/ha [6]: 90%
- Emax at 0.16 ppm [7]: 90%
- Emax at 0.8 ppm [7]: 99%
- Emax at 0.8 ppm [8]: 100%
- Emax at 4 ppm [8]: 100%

Structure (SMILES): CCOC(=O)c1cc(-c2ncc(C(=O)N(C)c3cccnc3)n2C)on1 [reference compound]
- Emax at 4 g/ha [6]: 0%
- Emax at 20 g/ha [6]: 0%
- Emax at 100 g/ha [6]: 0%
- Emax at 500 g/ha [6]: 0%
- Emax at 0.8 ppm [8]: 0%
- Emax at 4 ppm [8]: 0%

Structure (SMILES): CN(C(=O)c1cnc(C2CC2)n1C)c1cccnc1 [reference compound]
- Emax at 0.16 ppm [3]: 10%
- Emax at 0.8 ppm [3]: 30%
- Emax at 0.16 ppm [5]: 5%

- chromatographic logP [4, 9]: 1.84
- chromatographic logP [4, 10]: 1.97
Structure (SMILES): CN(C(=O)c1cnc(C2CC(c3ccc(C(F)(F)F)cn3)=NO2)n1C)c1cccnc1 (stereo not drawn) [Example I-1-36]
- pest or weed control at 4 ppm [1]: 100%
- pest or weed control at 500 g/ha [2]: 100%
- Emax at 0.8 ppm [3]: 97%
- Emax at 0.16 ppm [5]: 90%
- Emax at 0.8 ppm [5]: 99%
- Emax at 4 g/ha [6]: 100%
- Emax at 20 g/ha [6]: 90%
- Emax at 100 g/ha [6]: 90%
- Emax at 500 g/ha [6]: 100%
- Emax at 0.16 ppm [7]: 70%
- Emax at 0.8 ppm [7]: 80%
- Emax at 0.8 ppm [8]: 100%
- Emax at 4 ppm [8]: 100%
